The results in this text go back to patent US11078170B2 (Assembly Biosciences, Inc., priority 2017, dated 2021).

SMILES strings stand for the structures. pEC50: −log10 of the molar value.

The test has as its system HBV viral production from HepAD38 cells. The experiment in a line: Activity of test compounds on viral production from HepAD38 cells (viral load by qPCR of HBV core sequence in supernatant). Format: cell-based. To be noted: Hepatitis B virus, 120 h, 5 days incubation, HBV DNA in supernatant by qPCR, top concentration 10 μM, read-out: Viral Load EC50 Activity range. The essentials:
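EC50 and CC50 come from four-parameter fits of supernatant viral load and CellTiter-Glo viability, respectively. Viral load was measured by core-region TaqMan qPCR against HBV DNA standards and compared with DMSO controls. Tet-free HepAD38 cells (50,000/well, 2% FBS) were exposed to compound, highest 10 μM, for 5 days at 37° C.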
Take `CN1[C@@H](C(=O)Nc2ccc(F)c(Cl)c2)C[C@@H](c2cc(-c3cnn(CCO)c3)cs2)NS1(=O)=O` [HBV-CSU-296-ISO-II, Cis-N-(3-chloro-4-fluorophenyl)-5-(4-(1-(2-hydroxyethyl)-1H-pyrazol-4-yl)thiophen-2-yl)-2-methyl-1,2,6-thiadiazinane-3-carboxamide 1,1-dioxide]: the pEC50 is 5.30 to 6.00.

In the case of `CN1C(C(=O)Nc2ccc(F)c(Cl)c2)CC(c2ccc(-c3ccc(C#N)c(F)c3)s2)NS1(=O)=O` (racemic) [HBV-CSU-156, Cis-N-(3-chloro-4-fluorophenyl)-5-(5-(4-cyano-3-fluorophenyl)thiophen-2-yl)-2-methyl-1,2,6-thiadiazinane-3-carboxamide 1,1-dioxide], the pEC50 is greater than 6.00. The figure for `CN1[C@H](C(=O)Nc2ccc(F)c(Cl)c2)C[C@H](c2ccc(C(=O)O)cc2)NS1(=O)=O` [HBV-CSU-218-ISO-I, Cis-4-(5-((3-Chloro-4-fluorophenyl)carbamoyl)-6-methyl-1,1-dioxido-1,2,6-thiadiazinan-3-yl)benzoic acid] is less than 5.30; for `[2H]C([2H])([2H])N1C(C(=O)Nc2ccc(F)c(Cl)c2)CC(c2ccc(-c3cn(C)cn3)s2)NS1(=O)=O` (centres unmarked) [HBV-CSU-373] it is greater than 6.00; for `[2H]C1[C@]([2H])(C(=O)Nc2ccc(F)c(Cl)c2)N(C([2H])([2H])[2H])S(=O)(=O)N[C@]1([2H])c1ccc(-c2cn(C([2H])([2H])[2H])cn2)s1` (stereo in doubt) [HBV-CSU-378-ISO-II, Cis-N-(3-chloro-4-fluorophenyl)-2-(methyl-d3)-5-(5-(1-(methyl-d3)-1H-imidazol-4-yl)thiophen-2-yl)-1,2,6-thiadiazinane-3,4,5-d3-3-carboxamide 1,1-dioxide] it is 5.30 to 6.00.

Consider `CN1[C@H](C(=O)Nc2ccc(F)c(Cl)c2)C[C@H](c2ccc(Br)s2)NS1(=O)=O` [HBV-CSU-114-ISO-I, (3S,5R)-5-(5-Bromothiophen-2-yl)-N-(3-chloro-4-fluorophenyl)-2-methyl-1,2,6-thiadiazinane-3-carboxamide 1,1-dioxide], for which the pEC50 is greater than 6.00.

Turning to `CN1C(C(=O)Nc2ccc(F)c(Cl)c2)CC(c2ccc(-c3cncnc3)s2)NS1(=O)=O` (racemic) [HBV-CSU-272, Cis-N-(3-chloro-4-fluorophenyl)-2-methyl-5-(5-(pyrimidin-5-yl)thiophen-2-yl)-1,2,6-thiadiazinane-3-carboxamide 1,1-dioxide], the negative-log EC50 (pEC50) was greater than 6.00.

As for `CN1C(C(=O)Nc2ccc(F)c(Cl)c2)CC(c2nnc(-c3ccccc3)s2)NS1(=O)=O` (racemic) [HBV-CSU-120, Cis-N-(3-Chloro-4-fluorophenyl)-2-methyl-5-(5-phenyl-1,3,4-thiadiazol-2-yl)-1,2,6-thiadiazinane-3-carboxamide 1,1-dioxide], the pEC50 was greater than 6.00.

In the case of `CN1C(C(=O)Nc2ccc(F)c(Cl)c2)CC(c2cccc(C(F)(F)F)c2)NS1(=O)=O` (stereo not drawn) [HBV-CSU-259, Cis-N-(3-chloro-4-fluorophenyl)-2-methyl-5-(3-(trifluoromethyl)phenyl)-1,2,6-thiadiazinane-3-carboxamide 1,1-dioxide], the negative logarithm of the EC50 (pEC50) was greater than 6.00. In the case of `CN1[C@H](C(=O)Nc2ccc(F)c(Br)c2)C[C@H](c2ncc(Br)s2)NS1(=O)=O` [HBV-CSU-383, (3S,5R)—N-(3-bromo-4-fluorophenyl)-5-(5-bromothiazol-2-yl)-2-methyl-1,2,6-thiadiazinane-3-carboxamide 1,1-dioxide], the pEC50 is greater than 6.00. On to `Cc1sc([C@H]2C[C@@H](C(=O)Nc3ccc(F)c(Cl)c3)N(C)S(=O)(=O)N2)cc1-c1cnn(C)c1` [HBV-CSU-304-ISO-I, Cis-N-(3-Chloro-4-fluorophenyl)-2-methyl-5-(5-methyl-4-(1-methyl-1H-pyrazol-4-yl)thiophen-2-yl)-1,2,6-thiadiazinane-3-carboxamide 1,1-dioxide], for which the negative-log EC50 (pEC50) is greater than 6.00. The figure for `CN1C(C(=O)Nc2ccc(F)c(Cl)c2)CC(c2cc(-c3cccs3)cs2)NS1(=O)=O` (centres unmarked) [HBV-CSU-170] is greater than 6.00; for `CCc1sc([C@@H]2C[C@H](C(=O)Nc3ccc(F)c(Cl)c3)N(C)S(=O)(=O)N2)cc1-c1cnn(C)c1` [HBV-CSU-305-ISO-II, Cis-N-(3-Chloro-4-fluorophenyl)-5-(5-ethyl-4-(1-methyl-1H-pyrazol-4-yl)thiophen-2-yl)-2-methyl-1,2,6-thiadiazinane-3-carboxamide 1,1-dioxide] it is 5.30 to 6.00. To `CN1C(C(=O)Nc2ccc(F)c(Cl)c2)CC(c2ccc(-c3ccnn3C)s2)NS1(=O)=O` (racemic) [HBV-CSU-271, Cis-N-(3-chloro-4-fluorophenyl)-2-methyl-5-(5-(1-methyl-1H-pyrazol-5-yl)thiophen-2-yl)-1,2,6-thiadiazinane-3-carboxamide 1,1-dioxide] belongs greater than 6.00; to `CN1[C@H](C(=O)Nc2ccc(F)c(Cl)c2)C[C@H](c2ccc(-c3cnn(C)c3)s2)NS1(=O)=O` [HBV-CSU-161-ISO-I, Cis-N-(3-chloro-4-fluorophenyl)-2-methyl-5-(5-(1-methyl-1H-pyrazol-4-yl)thiophen-2-yl)-1,2,6-thiadiazinane-3-carboxamide 1,1-dioxide], greater than 6.00. To `CN1C(C(=O)Nc2ccc(F)c(Br)c2)CC(c2cccs2)NS1(=O)=O` (racemic) [HBV-CSU-016, Cis-N-(3-Bromo-4-fluorophenyl)-2-methyl-5-(thiophen-2-yl)-1,2,6-thiadiazinane-3-carboxamide 1,1-dioxide] belongs greater than 6.00; to `CN1[C@H](C(=O)Nc2ccc(F)c(Cl)c2)C[C@H](c2ncc(-c3cncn3C)s2)NS1(=O)=O` [HBV-CSU-277-ISO-I, Cis-N-(3-Chloro-4-fluorophenyl)-2-methyl-5-(5-(1-methyl-1H-imidazol-5-yl)thiazol-2-yl)-1,2,6-thiadiazinane-3-carboxamide 1,1-dioxide], greater than 6.00. As to `Cc1sc([C@@H]2C[C@H](C(=O)Nc3ccc(F)c(Cl)c3)N(C)S(=O)(=O)N2)cc1-c1cnn(C)c1` [HBV-CSU-304-ISO-II, Cis-N-(3-Chloro-4-fluorophenyl)-2-methyl-5-(5-methyl-4-(1-methyl-1H-pyrazol-4-yl)thiophen-2-yl)-1,2,6-thiadiazinane-3-carboxamide 1,1-dioxide], the negative logarithm of the EC50 (pEC50) was less than 5.30. The figure for `COC(=O)c1ccc(C2CC(C(=O)Nc3ccc(F)c(Cl)c3)N(C)S(=O)(=O)N2)cc1` (stereo not drawn) [HBV-CSU-256, Cis-methyl 4-(5-((3-chloro-4-fluorophenyl)carbamoyl)-6-methyl-1,1-dioxido-1,2,6-thiadiazinan-3-yl)benzoate] is 5.30 to 6.00; for `CN1C(C(=O)Nc2ccc(Cl)c(F)c2)CC(c2cccs2)NS1(=O)=O` (stereo not drawn) [HBV-CSU-018, Cis-N-(4-Chloro-3-fluorophenyl)-2-methyl-5-(thiophen-2-yl)-1,2,6-thiadiazinane-3-carboxamide 1,1-dioxide] it is 5.30 to 6.00; for `CN1C(C(=O)Nc2ccc(F)c(Cl)c2)CC(c2ccc(C(F)(F)F)s2)NS1(=O)=O` (racemic) [HBV-CSU-219, Cis-N-(3-Chloro-4-fluorophenyl)-2-methyl-5-(5-(trifluoromethyl)thiophen-2-yl)-1,2,6-thiadiazinane-3-carboxamide 1,1-dioxide] it is greater than 6.00. To `CN1C(C(=O)Nc2ccc(F)c(Cl)c2)CC(c2cc(-c3cnn(C(F)(F)F)c3)cs2)NS1(=O)=O` (racemic) [HBV-CSU-325, Cis-N-(3-Chloro-4-fluorophenyl)-2-methyl-5-(4-(1-(trifluoromethyl)-1H-pyrazol-4-yl)thiophen-2-yl)-1,2,6-thiadiazinane-3-carboxamide 1,1-dioxide] belongs greater than 6.00. As to `CN1[C@H](C(=O)Nc2ccc(F)c(Cl)c2)C[C@H](c2cc(-c3cccs3)cs2)NS1(=O)=O` [HBV-CSU-170-ISO-I], the negative logarithm of the EC50 (pEC50) was greater than 6.00. To `O=C(Nc1ccc(F)c(Cl)c1)[C@@H]1C[C@H](c2nccs2)NS(=O)(=O)N1CCc1c[nH]nn1` [HBV-CSU-092-ISO-I, Cis-2-(2-(1H-1,2,3-Triazol-4-yl)ethyl)-N-(3-chloro-4-fluorophenyl)-5-(thiazol-2-yl)-1,2,6-thiadiazinane-3-carboxamide 1,1-dioxide] belongs greater than 6.00; to `CN1C(C(=O)Nc2ccc(Cl)cc2)CC(c2cccs2)NS1(=O)=O` (stereo not drawn) [HBV-CSU-014, Cis-N-(4-chlorophenyl)-2-methyl-5-(thiophen-2-yl)-1,2,6-thiadiazinane-3-carboxamide 1,1-dioxide], 5.30 to 6.00. The figure for `CN1[C@H](C(=O)Nc2ccc(F)c(Cl)c2)C[C@H](c2ccc(-c3ccnn3C)s2)NS1(=O)=O` [HBV-CSU-271-ISO-I, Cis-N-(3-chloro-4-fluorophenyl)-2-methyl-5-(5-(1-methyl-1H-pyrazol-5-yl)thiophen-2-yl)-1,2,6-thiadiazinane-3-carboxamide 1,1-dioxide] is greater than 6.00; for `CN1[C@@H](C(=O)Nc2ccc(F)c(Cl)c2)C[C@@H](c2cc(-c3cnn(C)c3)c(Cl)s2)NS1(=O)=O` [HBV-CSU-306-ISO-II, Cis-5-(5-chloro-4-(1-methyl-1-pyrazol-4-yl)thiophen-2-yl)-N-(3-chloro-4-fluorophenyl)-2-methyl-1,2,6-thiadiazinane-3-carboxamide 1,1-dioxide] it is less than 5.30; for `CN1[C@@H](C(=O)Nc2ccc(F)c(Cl)c2)C[C@@H](c2nccs2)NS1(=O)=O` [HBV-CSU-027-ISO-I, Cis-N-(3-chloro-4-fluorophenyl)-2-methyl-5-(thiazol-2-yl)-1,2,6-thiadiazinane-3-carboxamide 1,1-dioxide] it is less than 5.30. The figure for `CN1C(C(=O)Nc2ccc(F)c(Cl)c2)CC(c2ccc(Br)s2)NS1(=O)=O` (centres unmarked) [HBV-CSU-114, 5-(5-Bromothiophen-2-yl)-N-(3-chloro-4-fluorophenyl)-2-methyl-1,2,6-thiadiazinane-3-carboxamide 1,1-dioxide] is greater than 6.00.
